Measured values taken from ChEMBL document CHEMBL4513141, “CO-ADD screening of NIH (USA) - Clinical Collection” (2021).
In brackets after ≈: the same amount, converted by molar mass. Where a name gives a salt, the structure may show the parent alone.

Legend:
[1] = test system: Pseudomonas aeruginosa; assay: microbe, parasite or virus in culture; conditions: ATCC 27853, 18 h, ASSAY_TEST Inhibition of Bacterial Growth, detection method Absorption (OD600), MEDIA CAMHB, plate type 384well, NBS, CORNING #3640
Description: Antibacterial activity against Pseudomonas aeruginosa ATCC 27853 (CO-ADD:GN_042); MIC in CAMBH media using NBS plates, by OD(600)

[2] = test system: Staphylococcus aureus; assay: microbe, parasite or virus in culture; conditions: ATCC 43300, 18 h, ASSAY_TEST Inhibition of Bacterial Growth, detection method Absorption (OD600), MEDIA CAMHB, plate type 384well, NBS, CORNING #3640
Description: Antibacterial activity against Staphylococcus aureus MRSA ATCC 43300 (CO-ADD:GP_020); MIC in CAMBH media, using NBS plates, by OD(600)

[3] = test system: Acinetobacter baumannii; assay: microbe, parasite or virus in culture; conditions: ATCC 19606, 18 h, ASSAY_TEST Inhibition of Bacterial Growth, detection method Absorption (OD600), MEDIA CAMHB, plate type 384well, NBS, CORNING #3640
Description: Antibacterial activity against Acinetobacter baumannii ATCC 19606 (CO-ADD:GN_034); MIC in CAMBH media using NBS plates, by OD600

[4] = test system: Escherichia coli; assay: microbe, parasite or virus in culture; conditions: ATCC 25922, 18 h, ASSAY_TEST Inhibition of Bacterial Growth, detection method Absorption (OD600), MEDIA CAMHB, plate type 384well, NBS, CORNING #3640
Description: Antibacterial activity against Escherichia coli ATCC 25922 (CO-ADD:GN_001); MIC in CAMBH media using NBS plates, by OD(600)

[5] = test system: Cryptococcus neoformans
Description: Antifungal activity against Cryptococcus neoformans H99 ATCC 208821 (CO-ADD:FG_002); MIC in YNB media using NBS plates, by Resazurin OD(600-570)

[6] = test system: HEK293; assay: cells; type: functional, Homo sapiens, ATCC CRL1573; conditions: ASSAY_TEST Inhibition of Cell Viability, detection method Resazurin, Fluorescence (ex560/em590), MEDIA DMEM with 10% FBS, plate type 384well, TC, CORNING #3712, time 18 hr
[7] = test system: Candida albicans; assay: microbe, parasite or virus in culture; conditions: ATCC 90028, ASSAY_TEST Inhibition of Fungal Growth, detection method Absorption (OD530), plate type 384well, NBS, CORNING #3640
Description: Antifungal activity against Candida albicans ATCC 90028 (CO-ADD:FG_001); MIC in YNB media using NBS plates, by OD630

[8] = test system: Klebsiella pneumoniae; assay: microbe, parasite or virus in culture; conditions: ATCC 700603, 18 h, ASSAY_TEST Inhibition of Bacterial Growth, detection method Absorption (OD600), MEDIA CAMHB, plate type 384well, NBS, CORNING #3640
Description: Antibacterial activity against Klebsiella pneumoniae MDR ATCC 70063 (CO-ADD:GN_003); MIC in CAMBH media using NBS plates, by OD(600)

[9] = Homo sapiens, ATCC CRL1573, HEK293

SMILES | MIC [1] [µM] | MIC [2] [µM] | MIC [3] [µM] | MIC [4] [µM] | MIC [5] [µM] | CC50 [6, 9] [µM] | MIC [7] [µM] | MIC [8] [µM] | CC50 [6] [µM]
N[C@@H](C(=O)N[C@@H]1C(=O)N2C(C(=O)O)=C(Cl)CS[C@H]12)c1ccccc1 [CEFACLOR ANHYDROUS] | > 10 | > 10 | > 10 | > 10 | > 10 | > 10 | > 10 | > 10 | 
CON=C(C(=O)NC1C(=O)N2C(C(=O)O)=C(COC(C)=O)CSC12)c1csc(N)n1 (stereo unspecified) | > 10 | > 10 | > 10 | 0.312 (≈ 0.142 µg/mL) | > 10 | > 10 | > 10 | > 10 | 
O=c1[nH]cc(F)c(=O)[nH]1 [FLUOROURACIL] | > 10 | 2.5 (≈ 0.325 µg/mL) | > 10 | > 10 | 5 (≈ 0.65 µg/mL) | > 10 | > 10 | > 10 | 
COc1c(N2CCNC(C)C2)c(F)cc2c(=O)c(C(=O)O)cn(C3CC3)c12 (stereo unspecified) [GATIFLOXACIN] | 0.625 (≈ 0.235 µg/mL) | 0.312 (≈ 0.117 µg/mL) | 1.25 (≈ 0.469 µg/mL) | ≤ 0.0781 | > 10 | > 10 | > 10 | 2.5 (≈ 0.939 µg/mL) | 
CO[C@H]1C=CO[C@@]2(C)Oc3c(C)c(O)c4c(O)c(c5c(nc6cc(C)ccn65)c4c3C2=O)NC(=O)C(C)=CC=C[C@H](C)[C@H](O)[C@@H](C)[C@@H](O)[C@@H](C)[C@H](OC(C)=O)[C@@H]1C | 2.5 (≈ 1.96 µg/mL) | ≤ 0.0781 | 10 (≈ 7.86 µg/mL) | 10 (≈ 7.86 µg/mL) | > 10 | > 10 | > 10 | > 10 | 
Oc1c(Cl)cc(Cl)c(Cl)c1Cc1c(O)c(Cl)cc(Cl)c1Cl [HEXACHLOROPHENE] | > 10 | 5 (≈ 2.03 µg/mL) | > 10 | > 10 | > 10 | > 10 | > 10 | > 10 | 
O=C1CN(/N=C/c2ccc([N+](=O)[O-])o2)C(=O)N1 [NITROFURANTOIN] | > 10 | > 10 | > 10 | > 10 | > 10 | > 10 | > 10 | > 10 | 
C[C@H]1COc2c(C3(N)CC3)c(F)cc3c(=O)c(C(=O)O)cn1c23 [PAZUFLOXACIN] | 1.25 (≈ 0.398 µg/mL) | 0.625 (≈ 0.199 µg/mL) | 2.5 (≈ 0.796 µg/mL) | ≤ 0.0781 | > 10 | > 10 | > 10 | 1.25 (≈ 0.398 µg/mL) | 
COc1ccc2[nH]c([S+]([O-])Cc3ncc(C)c(OC)c3C)nc2c1 (stereo unspecified) [OMEPRAZOLE MAGNESIUM] | > 10 | > 10 | > 10 | > 10 | > 10 | > 10 | > 10 | > 10 | 
CN(C)[C@@H]1C(O)=C(C(N)=O)C(=O)[C@@]2(O)C(O)=C3C(=O)c4c(O)cccc4[C@@](C)(O)[C@H]3C[C@@H]12 [TETRACYCLINE] | > 10 | > 10 | > 10 | > 10 | > 10 | > 10 | > 10 | > 10 | 
CC(=O)N1CCN(c2ccc(OCC3COC(Cn4ccnc4)(c4ccc(Cl)cc4Cl)O3)cc2)CC1 (stereo unspecified) [KETOCONAZOLE] | > 10 | > 10 | > 10 | > 10 | 2.5 (≈ 1.33 µg/mL) | > 10 | 0.156 (≈ 0.0831 µg/mL) | > 10 | 
Oc1cc(Cl)ccc1Oc1ccc(Cl)cc1Cl [TRICLOSAN] | > 10 | 2.5 (≈ 0.724 µg/mL) | > 10 | > 10 | > 10 | > 10 | > 10 | > 10 | 
CCCCCCNC(=O)n1cc(F)c(=O)[nH]c1=O [CARMOFUR] | > 10 | 2.5 (≈ 0.643 µg/mL) | > 10 | > 10 | 5 (≈ 1.29 µg/mL) | > 10 | > 10 | > 10 | 
COc1cc(NC(C)CCCN)c2ncccc2c1 (stereo unspecified) [PRIMAQUINE PHOSPHATE] | > 10 | > 10 | > 10 | > 10 | > 10 | > 10 | > 10 | > 10 | 
C[C@@H](c1ncncc1F)[C@](O)(Cn1cncn1)c1ccc(F)cc1F [VORICONAZOLE] | > 10 | > 10 | > 10 | > 10 | 0.625 (≈ 0.218 µg/mL) | > 10 | ≤ 0.0781 | > 10 | 
CCOc1ccc2ccccc2c1C(=O)N[C@@H]1C(=O)N2[C@@H]1SC(C)(C)[C@@H]2C(=O)O [NAFCILLIN SODIUM] | > 10 | 1.25 | > 10 | > 10 | > 10 | > 10 | > 10 | > 10 | 
CN1CCN(c2c(F)cc3c(=O)c(C(=O)O)cn4c3c2SCC4)CC1 | 10 (≈ 3.63 µg/mL) | 2.5 (≈ 0.909 µg/mL) | > 10 | 1.25 (≈ 0.454 µg/mL) | > 10 | > 10 | > 10 | > 10 | 
COC1=C(OC)C(=O)C(CCCCCCCCCCO)=C(C)C1=O [IDEBENONE] | > 10 | > 10 | > 10 | > 10 | > 10 | > 10 | > 10 | > 10 | 
CCn1cc(C(=O)O)c(=O)c2cc(F)c(N3CCNCC3)cc21 [NORFLOXACIN] | > 10 | 5 (≈ 1.6 µg/mL) | 5 (≈ 1.6 µg/mL) | 0.625 (≈ 0.2 µg/mL) | > 10 | > 10 | > 10 | 10 (≈ 3.19 µg/mL) | 
CC1c2cccc(O)c2C(=O)C2=C(O)C3(O)C(O)=C(C(N)=O)C(=O)C(N(C)C)C3C(O)C21 (stereo unspecified) | 0.312 (≈ 0.139 µg/mL) | 0.625 (≈ 0.278 µg/mL) | > 10 | 1.25 (≈ 0.556 µg/mL) | > 10 | > 10 | > 10 | > 10 | 
COc1cc(Cc2cnc(N)nc2N)cc(OC)c1OC [TRIMETHOPRIM] | > 10 | 5 (≈ 1.45 µg/mL) | > 10 | 1.25 (≈ 0.363 µg/mL) | > 10 | > 10 | > 10 | 10 (≈ 2.9 µg/mL) | 
CCC(C)n1ncn(-c2ccc(N3CCN(c4ccc(OCC5COC(Cn6cncn6)(c6ccc(Cl)cc6Cl)O5)cc4)CC3)cc2)c1=O (stereo unspecified) [ITRACONAZOLE] | > 10 | > 10 | > 10 | > 10 | 0.156 (≈ 0.11 µg/mL) | > 10 | ≤ 0.0781 | > 10 | 
CO[C@H]1/C=C/O[C@@]2(C)Oc3c(C)c(O)c4c(O)c(c(C=NN5CCN(C6CCCC6)CC5)c(O)c4c3C2=O)NC(=O)/C(C)=C\C=C\[C@H](C)[C@H](O)[C@@H](C)[C@@H](O)[C@@H](C)[C@H](OC(C)=O)[C@@H]1C | 10 (≈ 8.77 µg/mL) | ≤ 0.0781 | > 10 | 10 (≈ 8.77 µg/mL) | > 10 | > 10 | > 10 | > 10 | 
CCCCCCCCCOc1ccc2[nH]cc(CCN)c2c1 | > 10 | > 10 | > 10 | > 10 | > 10 | 4.05 | > 10 | > 10 | 
Cc1nnc(SCC2=C(C(=O)O)N3C(=O)C(NC(=O)Cn4cnnn4)C3SC2)s1 (stereo unspecified) | > 10 | > 10 | > 10 | > 10 | > 10 | > 10 | > 10 | > 10 | 
CC(C)/N=c1\cc2n(-c3ccc(Cl)cc3)c3ccccc3nc-2cc1Nc1ccc(Cl)cc1 [CLOFAZIMINE] | > 10 | > 10 | > 10 | > 10 | > 10 |  | > 10 | > 10 | 0.31
CC(=O)NC[C@H]1CN(c2ccc(N3CCOCC3)c(F)c2)C(=O)O1 [LINEZOLID] | > 10 | 2.5 (≈ 0.843 µg/mL) | > 10 | > 10 | > 10 | 4.46 | > 10 | > 10 | 
O=c1[nH]c(=O)n(C2CC(O)C(CO)O2)cc1F (stereo unspecified) | > 10 | ≤ 0.0781 | > 10 | 10 (≈ 2.46 µg/mL) | > 10 | 2.37 | > 10 | 5 (≈ 1.23 µg/mL) | 
CCCCc1oc2ccccc2c1C(=O)c1cc(I)c(OCCN(CC)CC)c(I)c1 [AMIODARONE HYDROCHLORIDE] | > 10 | > 10 | > 10 |  | 10 | > 10 | > 10 | > 10 | 
